Measurements reported in patent US20230310518A1, “Compositions and Methods for Treating Infections of the Gastrointestinal Tract” (Icahn School of Medicine at Mount Sinai, priority 2020, published 2023).

What was measured:
patients with rCDI = assay: Validation of bacterial strain engraftment through culturing from donor and recipient post-FMT; type: in vivo, human; settings: 8 weeks post-FMT; number of strains of the species
Excerpt: The isolation and sequencing of the transmitted strains from both the donor and the recipient represents a gold standard validation and verification of the commensal Koch’s postulates. […] The inventors cultured strains from 6 recipients both pre- and post-FMT (FIG. 2A) and compared the strain composition to that from the donor, to experimentally validate bacterial strain transmission.

[1] = test system: strains included in MTC01; assay: Antibiotic susceptibility, MIC by CLSI standards (Micromyx) and in-house etest; type: cell-based; settings: highest value of CLSI and etest methods
Excerpt: To be suitable for human trials, the strains in the bacterial consortium must be cultivatable in growth media that is free of animal products. The inventors discovered that all 16 bacterial strains can be cultured in a specific animal free media LYH_VIB (Table 7). All strains reach sufficient optical density (OD600) and potency (CFU/mL) cultured in LYH_VIB to be manufactured for human trials (Table 5). For safety considerations, the inventors focused on bacterial consortium strains that would be susceptible to multiple antibiotics. The inventors tested susceptibility to a range of antibiotics for all strains included in MTC01 and the minimal inhibitory concentration (MIC) was determined according to guidelines of the Clinical and Laboratory Standards Institute (CLSI). All strains were susceptible to multiple antibiotics (Table 6). […] The inventors confirmed that all 16 strains were strict anaerobes with no bacterial growth documented for any of the strains under aerobic conditions as confirmed by total aerobic microbial count (TAMC).
Each strain is susceptible to multiple antibiotics, and all strains are susceptible to three antibiotics (SAM, AMC, MEM). Minimum inhibitory concentrations (MIC) were determined by a CRO [Micromyx, LLC] according to CLSI standards and in-house by etest, keeping the highest value between the two methods: vancomycin (VAN), metronidazole (MTZ), tigecycline (TGC), ampicillin/sulbactam (SAM), amoxicillin/clavulanic acid (AMC), meropenem (MEM), piperacillin/tazobactam (TZP), clindamycin (CLI), ceftriaxone (CRO), moxifloxacin (MOX). […] Finally, multiple test fermentations were used to determine that the volumes for each manufacturing run are well within the 8L capacity of our current manufacturing set-up.

Molecule | Cultured in both donor and recipient post-FMT at 8 weeks (patients with rCDI) [strains] | susceptibility of all MTC01 strains to the antibiotic [1]
Parabacteroides distasonis | 3 | 
C[C@@H](O)[C@H]1C(=O)N2C(C(=O)O)=C(S[C@@H]3CN[C@H](C(=O)N(C)C)C3)[C@H](C)[C@H]12 [MEM, meropenem] |  | susceptible
ampicillin/sulbactam [SAM] |  | susceptible
Bifidobacterium longum | 4 | 
Bacteroides fragilis | 1 | 
amoxicillin/clavulanic acid [AMC] |  | susceptible
Bacteroides cellulosilyticus | 1 | 
